Values quoted from earlier work in patent US20140206025A1, “Use Of Detection Of Aspartate Transaminase And Lactate Dehydrogenase In Early Evaluation Of Clinical Efficacy Of Antitumor Intervention Measure” (Beijing Sunbio Biotech Co., Ltd., priority 2011, published 2014).

Tested on: tumor cells
Settings: Cytokin & Growth Factor Reviews 14 (2003) 337-348

For “TRAIL/APO-2L: wild type Tumor necrosis factor-related apoptosis-inducing ligand, acts on Death Receptor 4 and/or 5”, the “induction of apoptosis of tumor cells” value is given as “selectively induces the apoptosis of multiple tumor cells” and the “toxic effect on normal cells” value is given as “no obvious toxic effect on normal cells”.
